From PubChem BioAssay AID687005 (Broad Institute, 2013)
Inconclusive results are not listed. Calls of active or inactive are those of the source.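 How the source made its calls: active means Compounds that reduce signal, with fitted half-maximal dose at or under twice the top valid tested dose; inconclusive means Poor fit, or flat curve losing 30 to 70% of signal; inactive means Potency past limit, flat within 30%, or opposite direction.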

Test: viability loss in HEK293T cells – cell-based, ATP luminescence, cherry-pick samples, cytotoxicity control, dose response (AID 687005)
Settings: HEK293T viability, ATP luminescence (CellTiter-Glo), 48 h

Row | SMILES | activity change, negative = cytotoxicity (at 26 µM (top of the series)) | further results
1 | C[C@@H](NC(=O)C[C@H]1CC[C@@H](NC(=O)Cc2ccccn2)[C@@H](CO)O1)c1ccccc1 | -16.9% (inactive) | 
2 | CC1=C(C(=O)OCc2ccccc2)C(c2ccccc2)NC(=O)N1 (centres undefined) | 13.2% (inactive) | 
3 | Cc1noc(C)c1NC(=O)Nc1ccc2c(c1)C(=O)N([C@@H](C)CO)C[C@H](C)[C@H](CN(C)S(=O)(=O)c1ccc(Cl)cc1)O2 | 8.28% (inactive) | 
4 | C[C@H](O)C#Cc1ccc2c(c1)O[C@H](CN(C)Cc1ccncc1)[C@H](C)CN([C@H](C)CO)S2(=O)=O | 29.2% (inactive) | 
5 | Cc1noc(C)c1S(=O)(=O)N(C)C[C@H]1OCCCC[C@@H](C)Oc2ccc(NC(=O)CCCCCC(=O)Nc3ccccc3N)cc2C(=O)N([C@@H](C)CO)C[C@@H]1C | -1.73% (inactive) | 
6 | N#C[C@H]1[C@@H](c2ccccc2)[C@@H](CO)N1C(=O)Cc1ccccc1 | -9.76% (inactive) | 
7 | COC(=O)C1=C(C)N(Cc2ccccc2)C(=S)N[C@H]1c1ccc(Br)cc1 |  | activity change, negative = cytotoxicity (at 23.5 µM (top of the series)): 13.4% (inactive)
8 | C[C@@H]1CN([C@@H](C)CO)C(=O)CCCn2cc(nn2)CO[C@@H]1CN(C)C(=O)CCCN(C)C |  | activity change, negative = cytotoxicity (at 28.5 µM (top of the series)): 6.9% (inactive)
9 | Cc1noc(C)c1S(=O)(=O)Nc1ccc2c(c1)C(=O)N([C@@H](C)CO)C[C@H](C)[C@@H](CN(C)Cc1ccc3c(c1)OCO3)OCCCC[C@@H](C)O2 | 45.4% (inactive) | 
10 | C[C@@H]1CN([C@@H](C)CO)C(=O)c2cc(N(C)C)ccc2O[C@@H]1CN(C)C(=O)Nc1ccc(C(F)(F)F)cc1 | -29.4% (inactive) | 
11 | CCNC(=O)C[C@H]1CC[C@H](NC(=O)NC2CCCCC2)[C@@H](CO)O1 | -1.55% (inactive) | 
12 | CCCC(=O)N1CCC1(C)C(=O)Nc1ccc(C)cc1 (centres undefined) |  | activity change, negative = cytotoxicity (at 46 µM (top of the series)): -12.7% (inactive)
13 | C[C@@H]1CN([C@@H](C)CO)C(=O)c2cccc(NS(=O)(=O)c3ccc(F)cc3)c2O[C@H]1CN(C)S(=O)(=O)c1ccc(Cl)cc1 | -22.8% (inactive) | 
14 | C[C@@H]1CCCCO[C@@H](CN(C)C(=O)Nc2ccc3c(c2)OCO3)[C@@H](C)CN([C@H](C)CO)C(=O)c2cc(NC(=O)Nc3cccc4ccccc34)ccc2O1 |  | activity change, negative = cytotoxicity (at 23.5 µM (top of the series)): -9.79% (inactive)
15 | COCCNC(=O)C[C@H]1CC[C@@H]2[C@H](COC[C@H](O)CN2S(=O)(=O)c2ccccc2C)O1 | 15.9% (inactive) | 
16 | C[C@H]1CCCCO[C@H](CN(C)C(=O)c2ccncc2)[C@@H](C)CN([C@@H](C)CO)C(=O)c2cc(NC(=O)Cc3ccccc3)ccc2O1 | -3.36% (inactive) | 
17 | CCc1ccc(NC(=O)C2NC(=O)CC2c2ccccc2)cc1 (centres undefined) |  | activity change, negative = cytotoxicity (at 42 µM (top of the series)): -46.7% (inactive)
18 | C[C@@H]1CN([C@@H](C)CO)C(=O)CCCn2nncc2CO[C@@H]1CN(C)Cc1cccc(C(F)(F)F)c1 | -9.87% (inactive) | 
19 | COc1ccc(C2CC(c3cccs3)=NN2C(=O)c2ccc(Br)o2)cc1 (centres undefined) | 16.8% (inactive) | 
20 | C/C=C/c1ccc([C@@H]2[C@@H](C#N)N(S(=O)(=O)c3cccc(F)c3)[C@@H]2CO)cc1 | 4.72% (inactive) | 
21 | COc1ccccc1NC(=S)NCc1ccc(Cl)cc1 | -4.64% (inactive) | 
22 | O=C(Nc1ccccc1)N[C@@H]1CC[C@@H](CCNC(=O)c2ccccc2F)O[C@H]1CO | -29.3% (inactive) | 

Row | SMILES | activity change, negative = cytotoxicity (at 26 µM (top of the series)) | further results
23 | COc1cccc(C#Cc2cnc3c(c2)C(=O)N([C@H](C)CO)C[C@@H](C)[C@@H](CN(C)C(=O)C2CCOCC2)O3)c1 |  | activity change, negative = cytotoxicity (at 23.5 µM (top of the series)): 6.67% (inactive)
24 | COc1cccc(S(=O)(=O)N2C[C@@H](O)COC[C@H]3O[C@H](CC(=O)N4CCN(C)CC4)CC[C@@H]32)c1 | -1.64% (inactive) | 
25 | CC(C)c1ccc(S(=O)(=O)N2CCN(CC(=O)Nc3ccc4c(c3)OCO4)CC2)cc1 | -0.379% (inactive) | 
26 | C[C@@H](O)C#Cc1ccc([C@@H]2[C@H](CO)N3CCCCN(CC4CC4)C[C@@H]23)cc1 | -28.3% (inactive) | 
27 | O=C(C[C@H]1C=C[C@H](NC(=O)Nc2cc(F)ccc2F)[C@@H](CO)O1)NCCCN1CCOCC1 | 27.4% (inactive) | 
28 | COc1cc(NC(=O)CN2CCN(S(=O)(=O)c3ccc(C(C)C)cc3)CC2)cc(OC)c1 | 2.05% (inactive) | 
29 | CNC(=O)CN(c1ccc(OC)cc1)S(=O)(=O)c1ccc(F)cc1 | 31.6% (inactive) | 
30 | C[C@@H]1CN([C@@H](C)CO)C(=O)CCCn2nncc2CO[C@H]1CN(C)Cc1cccc(C(F)(F)F)c1 | -26.6% (inactive) | 
31 | CCNC(=O)Nc1ccc2c(c1)C(=O)N(C)[C@H]1CC[C@H](CC(=O)Nc3ccccc3F)O[C@@H]1CO2 | 46.5% (inactive) | 
32 | C[C@@H]1CN([C@H](C)CO)C(=O)c2cc(-c3ccc(C#N)cc3)cnc2O[C@@H]1CN(C)C(=O)Nc1ccc(F)cc1 | -0.869% (inactive) | 
33 | CCC(=O)N1[C@H](CO)[C@H](c2ccccc2)[C@H]1CN(CC)C(=O)c1cccc(F)c1 | -0.378% (inactive) | 
34 | C[C@H](CO)N1C[C@H](C)[C@@H](CN(C)S(=O)(=O)c2cn(C)cn2)Oc2c(NC(=O)Nc3ccccc3)cccc2C1=O | 1.19% (inactive) | 
35 | Cc1noc(C)c1NC(=O)N(C)C[C@@H]1Oc2ccc(NC(=O)C3CC3)cc2CC(=O)N([C@H](C)CO)C[C@@H]1C | 30.7% (inactive) | 
36 | COCCNC(=O)C[C@@H]1C[C@H]2c3cc(NC(=O)C4CCC4)ccc3O[C@H]2[C@@H](CO)O1 | 3.65% (inactive) | 
37 | Cc1ccccc1OCC(=O)NCc1ccccc1 | 2.49% (inactive) | 
38 | O=C(CN1CCOCC1)N1CC[C@@H]2[C@@H](CO)Nc3ccc(-c4ccccc4F)cc3[C@@H]21 | 29% (inactive) | 
39 | Cc1noc(C)c1S(=O)(=O)Nc1ccc2c(c1)CC(=O)N([C@@H](C)CO)C[C@@H](C)[C@@H](CN(C)S(=O)(=O)c1cccs1)O2 |  | activity change, negative = cytotoxicity (at 23.5 µM (top of the series)): -16.9% (inactive)
40 | C[C@@H]1CN([C@H](C)CO)C(=O)Cc2cc(NC(=O)Nc3cccc4ccccc34)ccc2O[C@@H]1CN(C)Cc1ccc(C(=O)O)cc1 |  | activity change, negative = cytotoxicity (at 23.5 µM (top of the series)): -26.3% (inactive)
41 | C[C@H]1CN([C@@H](C)CO)C(=O)c2cc(C#CC3(O)CCCC3)cnc2O[C@@H]1CN(C)Cc1cccnc1 | 13.8% (inactive) | 
42 | COc1ccc(CN(C)C[C@@H]2OCCCC[C@@H](C)Oc3ccc(NC(=O)c4ccccc4)cc3C(=O)N([C@H](C)CO)C[C@@H]2C)cc1 | -11.1% (inactive) | 
43 | CC(C)NC(=O)Nc1ccc2c(c1)CC(=O)N([C@@H](C)CO)C[C@@H](C)[C@@H](CN(C)S(=O)(=O)c1ccc(Cl)cc1)O2 | 6.41% (inactive) | 
44 | CO[C@H](CN(C)Cc1cc(F)ccc1F)[C@@H](C)CN([C@@H](C)CO)S(=O)(=O)c1ccc(F)cc1 | 14.8% (inactive) | 

Row | SMILES | activity change, negative = cytotoxicity (at 26 µM (top of the series)) | further results
45 | COCC(=O)NC[C@H]1N[C@H](CO)[C@H]1c1ccc(C2=CCCC2)cc1 | -13.3% (inactive) | 
46 | O=C(NC1CCCCC1)N[C@H]1C=C[C@@H](CC(=O)N2CCOCC2)O[C@H]1CO |  | activity change, negative = cytotoxicity (at 23.5 µM (top of the series)): 14.2% (inactive)
47 | Cc1noc(C)c1NC(=O)N(C)C[C@H]1OCCCC[C@H](C)Oc2ccc(NC(=O)NC(C)C)cc2C(=O)N([C@@H](C)CO)C[C@@H]1C |  | activity change, negative = cytotoxicity (at 23.5 µM (top of the series)): 68% (inactive)
48 | O=C(CSc1ncnc2c1cnn2-c1ccccc1)NC1CCS(=O)(=O)C1 (centres undefined) | 5% (inactive) | 
49 | COCCNC(=O)C[C@H]1C[C@@H]2c3cc(NC(=O)C4CCC4)ccc3O[C@@H]2[C@H](CO)O1 | 26.2% (inactive) | 
50 | CCCNC(C)C(=O)Nc1ccccc1C (centres undefined) | -25.6% (inactive) | 
51 | CN1C(=O)c2cc(NS(=O)(=O)c3cccc(F)c3)ccc2OC[C@H]2O[C@H](CC(=O)O)CC[C@H]21 | 29.9% (inactive) | 
52 | Fc1cccc(CCN2C(=S)NC[C@@H]2Cc2ccccc2)c1 | -28.1% (inactive) | 
53 | CNC[C@@H]1Oc2c(NS(=O)(=O)c3cccs3)cccc2C(=O)N([C@@H](C)CO)C[C@H]1C | 28.1% (inactive) | 
54 | Cc1cc(C(=O)Nc2ccc3c(c2)C(=O)N(C)[C@H]2CC[C@@H](CC(=O)N[C@@H](C)c4ccccc4)O[C@H]2CO3)no1 |  | activity change, negative = cytotoxicity (at 23.5 µM (top of the series)): -36.7% (inactive)
55 | C/C=C/c1ccc([C@H]2[C@@H](CO)N(C(=O)CC)[C@@H]2CNC(=O)C2CC2)cc1 |  | activity change, negative = cytotoxicity (at 23.5 µM (top of the series)): 42.4% (inactive)
56 | CNC[C@@H]1OCCCC[C@@H](C)Oc2ccc(NC(=O)NC(C)C)cc2C(=O)N([C@@H](C)CO)C[C@H]1C | 34.5% (inactive) | 
57 | CCCNC(=O)N(C)C[C@@H]1Oc2ncc(C#CCc3ccccc3)cc2C(=O)N([C@@H](C)CO)C[C@@H]1C | 12% (inactive) | 
58 | C[C@@H]1CN([C@H](C)CO)C(=O)c2cc(C3=CCCCC3)cnc2O[C@H]1CN(C)C(=O)Cc1cccnc1 | -11.9% (inactive) | 
59 | CO[C@@H](CN(C)Cc1ccc2c(c1)OCO2)[C@@H](C)CN(C(=O)c1ccccc1)[C@H](C)CO | 29.3% (inactive) | 
60 | O=C(c1cccc(F)c1)N1C[C@H]2[C@@H](c3ccccc31)[C@@H](CO)N2Cc1cocn1 | -0.298% (inactive) | 
61 | CCC(C)(C(=O)NC1CCCC1)N(C(C)=O)c1ccc(C)cc1 (centres undefined) | 9.31% (inactive) | 
62 | CCCNC(=O)N1C[C@@H]2[C@H](c3ccccc31)[C@H](CO)N2Cc1ccc(OC)cc1 | 2.66% (inactive) | 
63 | COc1ccc(CNC(=O)C[C@H]2CC[C@H]3[C@@H](COc4ccc(NC(=O)C5CC5)cc4C(=O)N3C)O2)cc1 | 26% (inactive) | 
64 | O=C(NC1CCCC1)N1CCCCN2[C@H](CO)[C@H](c3ccc(-c4cncnc4)cc3)[C@@H]2C1 | -34.7% (inactive) | 
